Assay type in all cases: cell-based; call rule not given here
The target of test [1] is T1, Transient receptor potential cation channel subfamily V member 1 (Homo sapiens, UniProt Q8NER1). Description: Displacement of [3H]RTX from human TRPV1 expressed in CHO cells after 60 mins by liquid scintillation counting analysis.
The target in test [2] is T1, Transient receptor potential cation channel subfamily V member 1. Description: Agonist activity at human TRPV1 expressed in CHO cells assessed as 45Ca2+ uptake after 20 mins by liquid scintillation counting analysis.
Test [3] has the same target. Description: Antagonist activity at human TRPV1 expressed in CHO cells assessed as inhibition of RTX-induced 45Ca2+ uptake after 20 mins by liquid scintillation counting analysis.

The source of these data is ChEMBL document CHEMBL3098004, “Asymmetric synthesis and receptor activity of chiral simplified resiniferatoxin (sRTX) analogues as transient receptor potential vanilloid 1 (TRPV1) ligands” (Bioorg Med Chem Lett, 2014).

T1 sequence (Q8NER1 whole entry): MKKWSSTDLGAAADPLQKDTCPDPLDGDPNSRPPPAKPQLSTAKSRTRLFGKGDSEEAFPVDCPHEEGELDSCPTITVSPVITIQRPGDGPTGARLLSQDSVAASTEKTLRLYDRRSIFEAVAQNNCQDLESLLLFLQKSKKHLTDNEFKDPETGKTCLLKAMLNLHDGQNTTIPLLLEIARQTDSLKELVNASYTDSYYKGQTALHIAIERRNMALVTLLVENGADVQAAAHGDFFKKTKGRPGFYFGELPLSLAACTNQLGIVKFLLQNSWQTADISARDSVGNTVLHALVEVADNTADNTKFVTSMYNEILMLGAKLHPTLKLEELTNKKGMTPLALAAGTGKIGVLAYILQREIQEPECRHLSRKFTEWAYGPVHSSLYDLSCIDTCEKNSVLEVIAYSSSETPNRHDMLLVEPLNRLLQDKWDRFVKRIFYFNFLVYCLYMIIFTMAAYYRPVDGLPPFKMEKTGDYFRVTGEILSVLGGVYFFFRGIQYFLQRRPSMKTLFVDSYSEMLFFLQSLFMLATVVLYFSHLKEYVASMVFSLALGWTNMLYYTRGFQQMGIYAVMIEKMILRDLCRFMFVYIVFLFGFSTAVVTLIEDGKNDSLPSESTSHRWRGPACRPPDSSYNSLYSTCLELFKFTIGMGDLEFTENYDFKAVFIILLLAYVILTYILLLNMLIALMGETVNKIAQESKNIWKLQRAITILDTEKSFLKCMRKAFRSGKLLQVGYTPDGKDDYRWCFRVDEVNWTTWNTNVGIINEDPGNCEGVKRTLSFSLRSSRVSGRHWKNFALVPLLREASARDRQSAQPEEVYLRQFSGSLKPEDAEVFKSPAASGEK

Regarding `COc1cc(CNC(=S)NC[C@H](COC(=O)C(C)(C)C)Cc2ccc(C(C)(C)C)cc2)ccc1O`, the Ki in test [1] is 3.06 nM; in test [3] (cho), “Not Active”. For the same molecule, the EC50 in test [2] (read-out: EC50) is 0.99 nM.

Take `COc1cc(CNC(=S)NC[C@@H](COC(=O)C(C)(C)C)Cc2ccc(C(C)(C)C)cc2)ccc1O`: the values for the Ki in test [1] and in test [3] (cho) were 6.58 nM and “Not Active”, respectively. In test [2] (read-out: EC50), the concentration for a half-maximal effect (EC50) was 9.55 nM.

Consider `CC(C)(C)C(=O)OC[C@@H](CNC(=S)NCc1ccc(NS(C)(=O)=O)c(F)c1)Cc1ccc(C(C)(C)C)cc1`, for which the Ki in test [1] amounted to 17.2 nM; in test [3] (read-out: Ki), 94 nM. Moreover, in test [2] (cho), the EC50 entry is listed as “Not Active”.

For `CC(C)(C)C(=O)OC[C@H](CNC(=S)NCc1ccc(NS(C)(=O)=O)c(F)c1)Cc1ccc(C(C)(C)C)cc1`, the inhibition constant (Ki) in test [1] stood at 63 nM; in test [3] (read-out: Ki), 161 nM. For the same molecule, the EC50 result in test [2] (cho) was “Not Active”.

On to `CC(C)(C)C(=O)OCC(CNC(=S)NCc1ccc(NS(C)(=O)=O)c(F)c1)Cc1ccc(C(C)(C)C)cc1` (racemic), for which the inhibitory constant (Ki) in test [1] stood at 23 nM; in test [3] (read-out: Ki) it was 122 nM. In test [2] (cho), the concentration giving a half-maximal response (EC50) entry was “Not Active”.

As to `COc1cc(CNC(=S)NCC(COC(=O)C(C)(C)C)Cc2ccc(C(C)(C)C)cc2)ccc1O` (racemic), the Ki is 6.1 nM in test [1] and “Not Active” in test [3] (cho). Besides, the EC50 in test [2] (read-out: EC50) is 1.34 nM.

As for `C=C(C)[C@]12C[C@@H](C)[C@@]34O[C@](Cc5ccccc5)(O[C@@H]1[C@@H]3C=C(COC(=O)Cc1cc(I)c(O)c(OC)c1)C[C@]1(O)C(=O)C(C)=C[C@@H]41)O2` [IODORESINIFERATOXIN], in test [2] (cho), the EC50 entry is “Not Active”.

Regarding `C=C(C)[C@]12C[C@@H](C)[C@@]34O[C@](Cc5ccccc5)(O[C@@H]1[C@@H]3C=C(COC(=O)Cc1ccc(O)c(OC)c1)C[C@]1(O)C(=O)C(C)=C[C@@H]41)O2` [RESINIFERATOXIN], the Ki entry in test [3] (cho) was “Not Active”.
